{"source": "paper PMC11345399", "about": "(The Journal of Biological Chemistry, 2024)", "key": {"[1]": {"biological_target": "HRV-16 RdRp (3Dpol) (Human rhinovirus 16, UniProt Q82122)"}, "[2]": {"biological_target": "PIV-5 RdRp complex (Parainfluenza virus 5, UniProt Q88434)"}, "[3]": {"biological_target": "MERS-CoV RdRp (Middle East respiratory syndrome-related coronavirus, UniProt K9N7C7)", "format": "biochemical"}, "[4]": {"biological_target": "RSV RdRp (Human respiratory syncytial virus A, UniProt P28887)", "format": "biochemical"}, "[5]": {"biological_target": "human mitochondrial RNA polymerase (h-mtRNAP) (Homo sapiens, UniProt O00411)", "sequence (O00411 42-1230 limits assumed)": "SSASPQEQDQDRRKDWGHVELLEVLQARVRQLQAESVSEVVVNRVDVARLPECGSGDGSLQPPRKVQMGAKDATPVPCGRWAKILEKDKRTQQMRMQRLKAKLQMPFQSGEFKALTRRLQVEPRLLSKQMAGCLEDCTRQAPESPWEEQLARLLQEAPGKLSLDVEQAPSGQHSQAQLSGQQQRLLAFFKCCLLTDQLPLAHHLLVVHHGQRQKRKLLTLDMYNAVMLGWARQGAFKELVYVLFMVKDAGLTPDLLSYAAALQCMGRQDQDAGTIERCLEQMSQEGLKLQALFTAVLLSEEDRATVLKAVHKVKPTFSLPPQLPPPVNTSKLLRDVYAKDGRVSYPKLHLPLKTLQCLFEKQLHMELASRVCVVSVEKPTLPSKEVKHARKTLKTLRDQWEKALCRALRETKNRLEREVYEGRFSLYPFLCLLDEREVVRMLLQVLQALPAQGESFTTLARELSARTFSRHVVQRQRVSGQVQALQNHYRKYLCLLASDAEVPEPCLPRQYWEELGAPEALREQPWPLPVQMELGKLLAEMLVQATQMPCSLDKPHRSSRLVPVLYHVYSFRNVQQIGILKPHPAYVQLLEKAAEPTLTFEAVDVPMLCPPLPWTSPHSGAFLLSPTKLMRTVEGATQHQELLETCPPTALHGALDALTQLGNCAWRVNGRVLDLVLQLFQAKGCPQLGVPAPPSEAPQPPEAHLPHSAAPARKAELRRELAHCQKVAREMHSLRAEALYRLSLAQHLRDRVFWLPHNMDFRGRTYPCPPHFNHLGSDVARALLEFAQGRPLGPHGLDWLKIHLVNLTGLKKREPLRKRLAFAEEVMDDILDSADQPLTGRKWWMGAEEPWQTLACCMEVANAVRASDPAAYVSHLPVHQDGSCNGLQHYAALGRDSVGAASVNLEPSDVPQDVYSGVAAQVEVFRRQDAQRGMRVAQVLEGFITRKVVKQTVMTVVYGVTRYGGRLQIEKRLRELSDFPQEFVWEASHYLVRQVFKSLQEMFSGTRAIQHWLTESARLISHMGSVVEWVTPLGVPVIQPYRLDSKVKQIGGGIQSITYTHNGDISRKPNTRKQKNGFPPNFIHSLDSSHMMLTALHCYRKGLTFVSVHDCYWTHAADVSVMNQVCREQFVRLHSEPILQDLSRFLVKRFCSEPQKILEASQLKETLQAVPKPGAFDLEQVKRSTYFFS", "format": "biochemical"}, "[6]": {"biological_target": "T1, HRV-16 RdRp (Human rhinovirus 16, UniProt Q82122)", "format": "biochemical"}, "[7]": {"biological_target": "HMPV RdRp complex (Human metapneumovirus, UniProt Q6WB93)"}, "[8]": {"biological_target": "HMPV RdRp (Human metapneumovirus, UniProt Q6WB93)", "format": "biochemical"}, "[9]": {"biological_target": "T1, HRV-16 RdRp", "format": "biochemical", "remark": "listed apart in the source"}, "[10]": {"biological_target": "SARS-CoV-2 RdRp (Severe acute respiratory syndrome coronavirus 2, UniProt P0DTD1)", "format": "biochemical"}, "[11]": {"biological_target": "RSV RdRp complex (Human respiratory syncytial virus A, UniProt P28887)"}, "[12]": {"biological_target": "HPIV-3 RdRp (Human parainfluenza 3 virus, UniProt P12577)", "format": "biochemical"}, "[13]": {"biological_target": "T1, HRV-16 RdRp", "format": "biochemical", "remark": "listed apart in the source"}, "[14]": {"biological_target": "PIV-5 RdRp (Parainfluenza virus 5, UniProt Q88434)", "format": "biochemical"}, "[15]": {"tested_on": "EV-71 RdRp", "format": "biochemical"}, "[16]": {"biological_target": "SARS-CoV-2 RdRp complex (Severe acute respiratory syndrome coronavirus 2, UniProt P0DTD1)"}, "[17]": {"biological_target": "MERS-CoV RdRp complex (Middle East respiratory syndrome-related coronavirus, UniProt K9N7C7)"}, "[18]": {"tested_on": "EV-71 RdRp", "format": "biochemical", "remark": "listed apart in the source"}, "[19]": {"biological_target": "EV-71 RdRp (3Dpol) (Enterovirus A71, UniProt E5RPG3)"}, "[20]": {"tested_on": "EV-71 RdRp", "format": "biochemical", "remark": "listed apart in the source"}}, "note": "“And” between values parts separate entries of the source, which are not always exact repeats. Equal entries are not always repeated.", "data": [{"smiles": "N#C[C@]1(COP(=O)(O)OP(=O)(O)OP(=O)(O)O)O[C@@H](c2ccc3c(N)ncnn23)[C@H](O)[C@@H]1O", "note": "[GS-646939]", "values": [{"measurement": "Incorporated more efficiently than natural ATP counterpart", "setting": "[1]", "result": "20-50 fold"}, {"measurement": "Selectivity (fold), Vmax/Km ATP over Vmax/Km analog", "setting": "[2]", "result": 5.05, "unit": "fold"}, {"measurement": "Vmax (product fraction) of UTP incorporation at i + 1", "setting": "[3]", "result": "0.91 ± 0.10"}, {"measurement": "Pattern of inhibition of RNA primer extension after incorporation at position i", "setting": "[4]", "result": "immediate chain termination"}, {"measurement": "Vmax (product fraction) of UTP incorporation at i + 1", "setting": "[4]", "result": "0.15 ± 0.0029"}, {"measurement": "Selectivity (fold), Vmax/Km ATP over Vmax/Km analog", "setting": "[5]", "result": 1538, "unit": "fold"}, {"measurement": "CI average (CIavg) ± standard deviation", "setting": "[6]", "result": 0.04}, {"measurement": "Preference for GS-646939 over GS-443902 under competitive conditions", "setting": "[6]", "result": "greater than 30 fold"}, {"measurement": "Selectivity (fold), Vmax/Km ATP over Vmax/Km analog", "setting": "[7]", "result": 1.73, "unit": "fold"}, {"measurement": "Pattern of inhibition of RNA primer extension after incorporation at position i", "setting": "[8]", "result": "immediate chain termination"}, {"measurement": "Vmax (product fraction) of UTP incorporation at i + 1", "setting": "[8]", "result": "0.087 ± 0.030"}, {"measurement": "Inhibition (fold) vs Template A", "setting": "[9]", "result": "~2 fold and 2.0 fold"}, {"measurement": "UTP", "setting": "[9]", "result": 1.0, "unit": "µM"}, {"measurement": "Vmax (product fraction) of UTP incorporation at i + 1", "setting": "[10]", "result": "0.79 ± 0.036"}, {"measurement": "Selectivity (fold), Vmax/Km ATP over Vmax/Km analog", "setting": "[11]", "result": 1.58, "unit": "fold"}, {"measurement": "Pattern of inhibition of RNA primer extension after incorporation at position i", "setting": "[12]", "result": "immediate chain termination"}, {"measurement": "Vmax (product fraction) of UTP incorporation at i + 1", "setting": "[12]", "result": "0.61 ± 0.0099"}, {"measurement": "Pattern of inhibition of RNA primer extension after incorporation at position i", "setting": "[13]", "result": "immediate chain-termination"}, {"measurement": "Vmax (product fraction) of UTP incorporation at i + 1", "setting": "[13]", "result": "0.83 ± 0.012"}, {"measurement": "Pattern of inhibition of RNA primer extension after incorporation at position i", "setting": "[14]", "result": "immediate chain termination"}, {"measurement": "Vmax (product fraction) of UTP incorporation at i + 1", "setting": "[14]", "result": "0.058 ± 0.080"}, {"measurement": "Pattern of inhibition of RNA primer extension after incorporation at position i", "setting": "[15]", "result": "immediate chain-termination"}, {"measurement": "Vmax (product fraction) of UTP incorporation at i + 1", "setting": "[15]", "result": "0.81 ± 0.017"}, {"measurement": "Selectivity (fold), Vmax/Km ATP over Vmax/Km analog", "setting": "[16]", "result": 1.37, "unit": "fold"}, {"measurement": "Selectivity (fold), Vmax/Km ATP over Vmax/Km analog", "setting": "[17]", "result": 1.17, "unit": "fold"}, {"measurement": "Inhibition (fold) of UTP incorporation across embedded analog", "setting": "[18]", "result": "~9", "unit": "fold"}, {"measurement": "Incorporated more efficiently than natural ATP counterpart", "setting": "[19]", "result": "20-50 fold"}, {"measurement": "CI average (CIavg) ± standard deviation", "setting": "[20]", "result": 0.07}, {"measurement": "Preference for GS-646939 over GS-443902 under competitive conditions", "setting": "[20]", "result": "greater than 30 fold"}]}]}
